Results published in the NIST ThermoML archive (doi:10.1021/acs.jced.8b00036).
Where “and” joins values, the source holds several entries; their conditions need not be identical. Equal values may be shown once. Numbers after ± are expanded uncertainties.

Conditions: Capillary tube (Ostwald / Ubbelohde) method

With `FCC(F)(F)F` [1,1,1,2-tetrafluoroethane] the viscosity (312.75 K, 4064 kPa, Liquid) was 0.1723 ± 0.01 mPa·s, the viscosity (312.76 K, 4069 kPa, Liquid) was 0.1731 ± 0.011 mPa·s and the viscosity (312.77 K, 3061 kPa, Liquid) was 0.1681 ± 0.01 mPa·s. It also gave a viscosity (312.78 K, 3042 kPa, Liquid) of 0.1684 ± 0.01 mPa·s, a viscosity (312.78 K, 3061 kPa, Liquid) of 0.1682 ± 0.01 mPa·s and a viscosity (312.82 K, 4048 kPa, Liquid) of 0.173 ± 0.011 mPa·s. For the same compound, the viscosity (312.83 K, 1706 kPa, Liquid) was 0.1656 ± 0.01 mPa·s, the viscosity (312.96 K, 1701 kPa, Liquid) was 0.165 ± 0.01 mPa·s and the viscosity (313.01 K, 1763 kPa, Liquid) was 0.1654 ± 0.01 mPa·s. It also gave a viscosity (313.5 K, 1796 kPa, Liquid) of 0.1656 ± 0.01 mPa·s, a viscosity (332.79 K, 3072 kPa, Liquid) of 0.1279 ± 0.0078 mPa·s and a viscosity (332.79 K, 3083 kPa, Liquid) of 0.1284 ± 0.0078 mPa·s. For the same compound, the viscosity (332.8 K, 3079 kPa, Liquid) was 0.1282 ± 0.0078 mPa·s, the viscosity (332.8 K, 4005 kPa, Liquid) was 0.1325 ± 0.0081 mPa·s and the viscosity (332.81 K, 4008 kPa, Liquid) was 0.1324 ± 0.0081 mPa·s. For the same compound, the viscosity (332.81 K, 4011 kPa, Liquid) was 0.1325 ± 0.0081 mPa·s, the viscosity (354.96 K, 4007 kPa, Liquid) was 0.09565 ± 0.0059 mPa·s and the viscosity (355.51 K, 4078 kPa, Liquid) was 0.09407 ± 0.0058 mPa·s. The viscosity (355.94 K, 4155 kPa, Liquid) was 0.09335 ± 0.0057 mPa·s.
With `FC(F)(F)/C=C\C(F)(F)F` [(Z)-1,1,1,4,4,4-hexafluorobut-2-ene] the viscosity (313.83 K, 513 kPa, Liquid) was 0.3037 ± 0.018 mPa·s, the viscosity (313.84 K, 513 kPa, Liquid) was 0.3034 ± 0.018 mPa·s and the viscosity (313.84 K, 514 kPa, Liquid) was 0.3036 ± 0.018 mPa·s. For the same compound, the viscosity (313.92 K, 2053 kPa, Liquid) was 0.3115 ± 0.019 mPa·s, the viscosity (313.94 K, 2037 kPa, Liquid) was 0.3097 ± 0.019 mPa·s and the viscosity (313.94 K, 2996 kPa, Liquid) was 0.3143 ± 0.019 mPa·s. It also gave a viscosity (313.94 K, 3001 kPa, Liquid) of 0.3146 ± 0.019 mPa·s, a viscosity (313.94 K, 4041 kPa, Liquid) of 0.3198 ± 0.019 mPa·s and a viscosity (313.95 K, 2025 kPa, Liquid) of 0.3098 ± 0.019 mPa·s. For the same compound, the viscosity (313.95 K, 3000 kPa, Liquid) was 0.3143 ± 0.019 mPa·s, the viscosity (313.95 K, 4049 kPa, Liquid) was 0.3197 ± 0.019 mPa·s and the viscosity (313.96 K, 4002 kPa, Liquid) was 0.3194 ± 0.019 mPa·s. The viscosity (314.26 K, 1040 kPa, Liquid) was 0.3074 ± 0.019 mPa·s, the viscosity (314.27 K, 1041 kPa, Liquid) was 0.3068 ± 0.019 mPa·s and the viscosity (314.31 K, 1050 kPa, Liquid) was 0.3081 ± 0.019 mPa·s. For the same compound, the viscosity (331.5 K, 503 kPa, Liquid) was 0.2577 ± 0.016 mPa·s, the viscosity (331.5 K, 505 kPa, Liquid) was 0.2579 ± 0.016 mPa·s and the viscosity (331.51 K, 506 kPa, Liquid) was 0.2578 ± 0.016 mPa·s. The viscosity (331.57 K, 2020 kPa, Liquid) was 0.2593 ± 0.016 mPa·s and 0.2599 ± 0.016 mPa·s, the viscosity (331.57 K, 2033 kPa, Liquid) was 0.26 ± 0.016 mPa·s and the viscosity (331.81 K, 1002 kPa, Liquid) was 0.2579 ± 0.016 mPa·s. It also gave a viscosity (331.82 K, 1017 kPa, Liquid) of 0.259 ± 0.016 mPa·s, a viscosity (331.83 K, 1015 kPa, Liquid) of 0.2588 ± 0.016 mPa·s and a viscosity (331.84 K, 4062 kPa, Liquid) of 0.2658 ± 0.016 mPa·s. The viscosity (331.85 K, 4047 kPa, Liquid) was 0.2652 ± 0.016 mPa·s, the viscosity (331.87 K, 4059 kPa, Liquid) was 0.2651 ± 0.016 mPa·s and the viscosity (331.94 K, 3026 kPa, Liquid) was 0.2608 ± 0.016 mPa·s. It also gave a viscosity (331.94 K, 3039 kPa, Liquid) of 0.2617 ± 0.016 mPa·s, a viscosity (331.94 K, 3040 kPa, Liquid) of 0.2617 ± 0.016 mPa·s and a viscosity (353.79 K, 4019 kPa, Liquid) of 0.2122 ± 0.013 mPa·s. The viscosity (353.8 K, 4020 kPa, Liquid) was 0.212 ± 0.013 mPa·s and 0.2117 ± 0.013 mPa·s, the viscosity (353.99 K, 2066 kPa, Liquid) was 0.2011 ± 0.012 mPa·s and the viscosity (353.99 K, 2067 kPa, Liquid) was 0.2011 ± 0.012 mPa·s. The viscosity (354 K, 2064 kPa, Liquid) was 0.201 ± 0.012 mPa·s, the viscosity (354.08 K, 3022 kPa, Liquid) was 0.2047 ± 0.012 mPa·s and the viscosity (354.1 K, 3021 kPa, Liquid) was 0.2032 ± 0.012 mPa·s. The viscosity (354.23 K, 1032 kPa, Liquid) was 0.1944 ± 0.012 mPa·s, the viscosity (354.23 K, 1033 kPa, Liquid) was 0.1942 ± 0.012 mPa·s and the viscosity (354.24 K, 1031 kPa, Liquid) was 0.193 ± 0.012 mPa·s. It also gave a viscosity (374.43 K, 4050 kPa, Liquid) of 0.1702 ± 0.01 mPa·s, a viscosity (374.43 K, 4056 kPa, Liquid) of 0.1702 ± 0.01 mPa·s and a viscosity (374.44 K, 2025 kPa, Liquid) of 0.1613 ± 0.0098 mPa·s. It also gave a viscosity (374.44 K, 4050 kPa, Liquid) of 0.1705 ± 0.01 mPa·s, a viscosity (374.45 K, 2025 kPa, Liquid) of 0.1618 ± 0.0098 mPa·s and a viscosity (374.46 K, 2025 kPa, Liquid) of 0.1611 ± 0.0098 mPa·s. The viscosity (374.74 K, 3026 kPa, Liquid) was 0.1632 ± 0.0099 mPa·s and 0.1645 ± 0.01 mPa·s, the viscosity (374.75 K, 3026 kPa, Liquid) was 0.1635 ± 0.0099 mPa·s and the viscosity (374.87 K, 492 kPa, Gas) was 0.013 ± 0.00082 mPa·s. The viscosity (374.88 K, 492 kPa, Gas) was 0.01305 ± 0.00082 mPa·s, the viscosity (393.63 K, 3044 kPa, Liquid) was 0.1336 ± 0.0081 mPa·s and the viscosity (393.64 K, 3044 kPa, Liquid) was 0.1339 ± 0.0081 mPa·s. The viscosity (393.65 K, 3044 kPa, Liquid) was 0.1332 ± 0.0081 mPa·s, the viscosity (393.65 K, 4017 kPa, Liquid) was 0.1377 ± 0.0084 mPa·s and 0.138 ± 0.0084 mPa·s and 0.1378 ± 0.0084 mPa·s and the viscosity (394 K, 2016 kPa, Liquid) was 0.1278 ± 0.0078 mPa·s. For the same compound, the viscosity (394.01 K, 2016 kPa, Liquid) was 0.128 ± 0.0078 mPa·s, the viscosity (394.03 K, 2016 kPa, Liquid) was 0.1282 ± 0.0078 mPa·s and the viscosity (394.16 K, 499 kPa, Gas) was 0.01348 ± 0.00085 mPa·s. For the same compound, the viscosity (394.19 K, 499 kPa, Gas) was 0.01343 ± 0.00085 mPa·s, the viscosity (413.55 K, 4046 kPa, Liquid) was 0.1104 ± 0.0067 mPa·s and the viscosity (413.56 K, 4047 kPa, Liquid) was 0.11 ± 0.0067 mPa·s. For the same compound, the viscosity (413.63 K, 3011 kPa, Liquid) was 0.103 ± 0.0063 mPa·s, the viscosity (413.63 K, 3015 kPa, Liquid) was 0.103 ± 0.0063 mPa·s and the viscosity (413.75 K, 3010 kPa, Liquid) was 0.1029 ± 0.0063 mPa·s. The viscosity (413.99 K, 503 kPa, Gas) was 0.01378 ± 0.00087 mPa·s, the viscosity (414.21 K, 503 kPa, Gas) was 0.01361 ± 0.00086 mPa·s and the viscosity (414.24 K, 1014 kPa, Gas) was 0.01449 ± 0.00092 mPa·s. The viscosity (414.29 K, 1033 kPa, Gas) was 0.01434 ± 0.00091 mPa·s and 0.01444 ± 0.00091 mPa·s, the viscosity (434.12 K, 3016 kPa, Liquid) was 0.07044 ± 0.0044 mPa·s and 0.07094 ± 0.0044 mPa·s and the viscosity (434.13 K, 3016 kPa, Liquid) was 0.07045 ± 0.0044 mPa·s. The viscosity (434.23 K, 502 kPa, Gas) was 0.01388 ± 0.00088 mPa·s, the viscosity (434.23 K, 503 kPa, Gas) was 0.01384 ± 0.00087 mPa·s and the viscosity (434.28 K, 1011 kPa, Gas) was 0.01451 ± 0.00092 mPa·s. For the same compound, the viscosity (434.28 K, 1012 kPa, Gas) was 0.01443 ± 0.00091 mPa·s, the viscosity (434.37 K, 4014 kPa, Liquid) was 0.08047 ± 0.005 mPa·s and 0.08072 ± 0.005 mPa·s and 0.08096 ± 0.005 mPa·s and the viscosity (454.24 K, 506 kPa, Gas) was 0.01429 ± 0.0009 mPa·s. For the same compound, the viscosity (454.27 K, 506 kPa, Gas) was 0.0143 ± 0.0009 mPa·s, the viscosity (454.34 K, 1003 kPa, Gas) was 0.01547 ± 0.00097 mPa·s and 0.01568 ± 0.00099 mPa·s and the viscosity (454.57 K, 2031 kPa, Gas) was 0.01628 ± 0.001 mPa·s. For the same compound, the viscosity (454.58 K, 2030 kPa, Gas) was 0.01633 ± 0.001 mPa·s, the viscosity (473.27 K, 509 kPa, Gas) was 0.02101 ± 0.0013 mPa·s and the viscosity (474.67 K, 500 kPa, Gas) was 0.0152 ± 0.00098 mPa·s. For the same compound, the viscosity (474.69 K, 500 kPa, Gas) was 0.01519 ± 0.00098 mPa·s, the viscosity (474.82 K, 999 kPa, Gas) was 0.01587 ± 0.001 mPa·s and the viscosity (474.83 K, 2004 kPa, Gas) was 0.0169 ± 0.0011 mPa·s. The viscosity (474.84 K, 2004 kPa, Gas) was 0.01661 ± 0.001 mPa·s and the viscosity (474.85 K, 1000 kPa, Gas) was 0.01579 ± 0.00099 mPa·s.
